Experimental findings from PubChem BioAssay AID1996 are described below.

In brackets after ≈: the same amount, converted by molar mass.

For the data set the following is noted: buffer; pH 7.4; 200.0 µM.
Regarding `CN1CCc2c(OCC(=O)N3CCCc4ccccc43)cccc2C1=O`, the solubility (kinetic) was over 52.6 µg/mL.
For `Cc1cc(C)c(NC(=S)N(CCc2ccncc2)C(C)C)c(C)c1` the value was 48.8 µg/mL (≈ 143 µM); for `CC1CC(C)CN(c2ccc([N+](=O)[O-])nc2)C1` (stereo not drawn), 28.6 µg/mL (≈ 122 µM); for `CCCn1c(=S)[nH]c2cc(Cl)ccc21`, 32.3 µg/mL (≈ 142 µM).
The same measure for `COc1ccc(C(=O)CNC2=NCCC2)cc1.Cl`: over 40.3 µg/mL; for `CCOC(=O)c1cn(CC)c2cc(F)c(F)cc2c1=O`: over 42.2 µg/mL.
The compound `CCOc1ccc([N+](=O)[O-])cc1CNC1CCCCCCC1.Cl` returned a kinetic solubility of over 51.4 µg/mL.
For `O=C(NC(=S)NC1CCCc2ccccc21)c1ccc(F)cc1` (stereo not drawn) the value was under 0.4 µg/mL; for `C=CCN1C(=S)N[C@@H]2CS(=O)(=O)C[C@@H]21`, over 34.8 µg/mL.
Compound `CC1CC1C(=O)OCC(=O)Nc1ccc(Cl)cn1` (stereo not drawn) had a solubility (kinetic) of 27.6 µg/mL (≈ 103 µM).
The compound `O=C(CN1CCN(C/C=C/c2ccccc2)CC1)Nc1ccc(F)cc1F` showed a kinetic solubility of 49.9 µg/mL (≈ 134 µM).
Take `COc1ccc([N+](=O)[O-])cc1NC(=O)c1ccco1`: the kinetic solubility is 4.3 µg/mL (≈ 16.4 µM). Against the preceding compound, the solubility kinetic is about 12-fold lower.
The compound `COc1cccc(NC(=O)CNC(=O)c2ccc([N+](=O)[O-])cc2)c1` displayed a solubility (kinetic) of 2.9 µg/mL (≈ 8.81 µM). This solubility kinetic and that of the compound before are within 1.5-fold of each other.
For the compound `COC(=O)CN1CC(=O)N(c2ccccc2)C1=S`, the kinetic solubility is over 39.6 µg/mL.
The same measure for `CC(Sc1nnc(N)s1)C(=O)Nc1nccs1` (stereo not drawn): over 43.1 µg/mL.
Regarding `Cc1cccc(NC(=O)Nc2cnccn2)c1C`, the solubility (kinetic) came out at 1.9 µg/mL (≈ 7.84 µM).
The same measure for `COc1ccc(C(=O)OCC(=O)c2c[nH]c3ccccc23)c(OC)c1`: 4.5 µg/mL (≈ 13.3 µM).
The same measure for `Cc1cc2cc(C#N)c(N3CCOCC3)nc2cc1Cl`: 0.5 µg/mL (≈ 1.74 µM); for `COCCNc1nc(N)c([N+](=O)[O-])c(NC2CCCCC2)n1`: 7.2 µg/mL (≈ 23.2 µM).
The same measure for `COc1ccc(C(=O)NC(=S)N2CCC(C)CC2)cc1Br`: 8 µg/mL (≈ 21.5 µM); for `CC(C)(C)NC(=O)C(OC(=O)c1cccs1)c1ccc(F)cc1` (stereo not drawn): 1.3 µg/mL (≈ 3.88 µM); for `CCC1CCCCN1C(=O)CCS(=O)(=O)c1ccccc1` (stereo not drawn): over 46.4 µg/mL.
`O=S(=O)(Nc1nccs1)c1ccc(NS(=O)(=O)c2c(F)cc(F)c(Cl)c2F)cc1` returned a kinetic solubility of over 72.6 µg/mL.
In turn, `COCCCN(C(=O)C1CCCCC1)c1c(N)n(Cc2ccccc2)c(=O)[nH]c1=O` displayed a kinetic solubility of 14.3 µg/mL (≈ 34.5 µM).
For `O=C(NC1CCN(c2ncccn2)CC1)c1ccccc1F` the value was 39.7 µg/mL (≈ 132 µM); for `CCOC(=O)Cn1nc(C)c(NC(=O)COc2ccc(OC)cc2)c1C`, over 54.2 µg/mL; for `COC(=O)c1ccc(CN2C(=O)NC3(CCC(C)CC3)C2=O)cc1` (stereo not drawn), 7.5 µg/mL (≈ 22.7 µM).
`CCOC(=O)C1(CC2CC2)CCN(C(=O)c2ocnc2C)CC1` had a kinetic solubility of over 48.1 µg/mL.
The same measure for `Cc1cccc(C(=O)NC2CCCCCCC2)c1`: 8.9 µg/mL (≈ 36.3 µM); for `C#CCOc1c(Cl)cc(/C=C2/C(=O)ON=C2C)cc1OCC`: 39.4 µg/mL (≈ 123 µM).
The same measure for `O=C1NC(=S)N/C1=C/c1cccc2ccccc12`: 1.7 µg/mL (≈ 6.68 µM).
For `CCS(=O)(=O)N1CCC(C(=O)Oc2ccccc2)CC1` the value was 39.1 µg/mL (≈ 131 µM).
In the case of `Cc1noc(C(=O)Nc2cccnc2Cl)c1Cl`, the kinetic solubility was over 40.8 µg/mL.
Turning to `CC(=O)/C(=C\N(C)C)Sc1ccc(Cl)cc1`, the kinetic solubility amounted to 17.6 µg/mL (≈ 68.8 µM).
The same measure for `O=C(NCc1ccc2c(c1)OCO2)c1ccccc1Cl`: 40.8 µg/mL (≈ 141 µM); for `CC(=O)c1c(C)[nH]c(C(=O)N2CCN(c3ccccn3)CC2)c1C`: 42.4 µg/mL (≈ 130 µM); for `Cc1cccc(NC(=S)NC(=O)c2ccc(-c3ccccc3)cc2)n1`: 0.5 µg/mL (≈ 1.44 µM).
The same measure for `COc1ccc(NC(=S)NC(=O)c2ccc3c(c2)OCCO3)cc1`: 2.1 µg/mL (≈ 6.1 µM); for `COc1ccc(NC(=O)C2C3C=CC(C3)C2C(=O)O)cc1` (stereo not drawn): over 43.1 µg/mL; for `CCCCC(CC)C(=O)N1CCN(C(=O)c2ccco2)CC1` (stereo not drawn): 45.4 µg/mL (≈ 148 µM).
For `C/C(Cl)=C/Cc1c(C)[nH]c2c(ccc3ccccc32)c1=O` the value was under 0.6 µg/mL; for `CCCOC(=O)C1=C(C)N(C)C(=O)NC1c1cc2c(cc1[N+](=O)[O-])OCO2` (stereo not drawn), 49.4 µg/mL (≈ 131 µM); for `Cn1c(N2CCCC2)nc2c1c(=O)[nH]c(=O)n2C`, over 37.4 µg/mL.
On to `CSCC[C@H](NC(=O)Nc1ccc(Oc2ccccc2)cc1)C(=O)O`, for which the kinetic solubility was over 54.1 µg/mL.
The same measure for `CSc1nc(C(C)C)ccc1CNC(=O)CC(C)c1ccccc1` (stereo not drawn): 1.3 µg/mL (≈ 3.8 µM); for `Cc1cccc(NC(=O)NCCN2CCCCC2)c1`: over 39.2 µg/mL; for `COCc1cc(C)n(CC(=O)NCC2CCCO2)c(=O)c1C#N` (stereo not drawn): 41.8 µg/mL (≈ 131 µM).
The same measure for `COc1ccc(NC(=O)CCn2cc(C)c3ccccc32)cc1`: 4.4 µg/mL (≈ 14.3 µM); for `COC(=O)CC(NC(=O)c1cccs1)c1ccc(OC)c(OC)c1` (stereo not drawn): over 52.4 µg/mL.
For `Cc1cnc(C(=O)NCc2ccc(F)cc2)cn1` the value was over 36.8 µg/mL; for `CCCCSCCCNC(=O)Nc1ccc(CC)cc1`, 3.6 µg/mL (≈ 12.2 µM); for `O=C(CSc1nccn1-c1cccc(F)c1)NC1CCCC1`, over 47.9 µg/mL.
`O=C(Nc1ccc(Cl)cc1)N1CCCC(Cn2cccc2)C1` (stereo not drawn) displayed a solubility (kinetic) of over 47.7 µg/mL.
The same measure for `CC1=CC(C)(C)N(C(=O)CN2C(=O)CCC2=O)c2ccccc21`: over 46.9 µg/mL.
For `CC(C)CC(N(C)C)C1(c2ccc(Cl)cc2)CCC1.Cl` (stereo not drawn) the value was under 0.7 µg/mL.
The same measure for `Cc1nc(C)c(C(=O)O)c(-c2cccs2)c1C(=O)O`: over 41.6 µg/mL.
`COc1ccc(NC(=O)CC2CCCC2)cc1OC`: the kinetic solubility is over 39.5 µg/mL.
For `O=C1CC(N2CCSCC2)C(=O)N1c1ccc(F)cc1` (stereo not drawn) the value was over 44.2 µg/mL; for `CC(C)(C)C1CCC(=NNC(=O)C(=O)NCc2cccnc2)CC1` (stereo not drawn), over 49.6 µg/mL; for `CS(=O)(=O)N1CCC(C(=O)Nc2ccc(F)c(Cl)c2)CC1`, over 50.2 µg/mL.
For `CC1(C)CC2CC(C)(CN2S(=O)(=O)c2ccccc2[N+](=O)[O-])C1` (stereo not drawn) the value was 2.4 µg/mL (≈ 7.09 µM); for `CCOC(=O)c1c(C)oc2c1c(C=NC1CCS(=O)(=O)C1)c(O)c1ccccc12` (stereo not drawn), under 0.9 µg/mL; for `Cc1[nH]c2ccc(C(=O)NCc3ccccn3)cc2c1C`, over 41.9 µg/mL.
For `Cc1cccn2c(=O)c3cc(C(=O)N4CCCCC4C)sc3nc12` (stereo not drawn) the value was 13.1 µg/mL (≈ 38.4 µM); for `CCOC(=O)c1ccccc1NC(=O)c1cc2ccccc2o1`, under 0.7 µg/mL; for `COc1cc2c(cc1OC)C(c1ccccc1Br)NC(=O)C2` (stereo not drawn), over 54.3 µg/mL.
As for `O=C1OCCN/C1=C\C(=O)c1ccccc1`, the kinetic solubility is over 32.6 µg/mL.
For `CC(=O)c1c(C)[nH]c(C(=O)Nc2nc(C)cs2)c1C` the value was 4.1 µg/mL (≈ 14.8 µM).
For `Cn1c(N)c(C(=O)COC(=O)Cc2c(F)cccc2Cl)c(=O)n(C)c1=O` the value was 31.9 µg/mL (≈ 83.1 µM); for `Cc1nc(NC(=O)COC(=O)C2CC3CCCC(C2)C3=O)c(Cl)cc1Cl` (stereo not drawn), over 59.9 µg/mL.
For `NC(=O)C1CCCN(C(=O)CCCNC(=O)c2ccc(Cl)cc2)C1` (stereo not drawn) the value was over 52.8 µg/mL.
`Cc1ccc(Cn2cc(C=O)c3ccccc32)cc1`: the solubility (kinetic) was determined as 11.7 µg/mL (≈ 46.9 µM).
Take `N#CC(C#N)=C1NC(N)=C(C#N)C(c2ccccc2)=C1C#N`: the solubility (kinetic) is over 42.6 µg/mL.
For `O=C1c2ccccc2C(=O)c2[nH]c(=O)[nH]c21` the value was over 32.1 µg/mL; for `O=c1oc2ccccc2c(O)c1Cc1cc(Cl)c2cccnc2c1O`, over 53.1 µg/mL; for `O=C(Nc1ccccc1Cl)NC1(C(=O)N2CCC(O)CC2)CCCCC1`, over 57 µg/mL.
The same measure for `C=CCNc1oc(-c2cccs2)nc1S(=O)(=O)c1ccccc1`: 16.8 µg/mL (≈ 48.5 µM).
For `COc1cc(NC(=O)Nc2cccc3cccnc23)cc(OC)c1OC` the value was 0.4 µg/mL (≈ 1.13 µM).
On to `COC(=O)C(Cc1ccc(O)cc1)NC(=O)CCNC(=O)c1ccco1` (stereo not drawn), for which the kinetic solubility is over 54.1 µg/mL.
The same measure for `CCn1c(COc2ccccc2OC)nc2ccccc21`: 41.9 µg/mL (≈ 148 µM); for `COc1ccccc1/C(C)=N/Oc1cc(N)cc([N+](=O)[O-])c1`: 1.7 µg/mL (≈ 5.64 µM).
With `O=C(c1c(F)cccc1F)N1CCN(CCOc2ccccc2)CC1`, the solubility (kinetic) was over 52 µg/mL.
In turn, `COc1cccc(NC(=O)CN2CCc3ccccc3C2)c1` had a solubility (kinetic) of 42.7 µg/mL (≈ 144 µM).
The same measure for `O=C(/C=C/c1ccco1)Nc1ccc2c(c1)OCCO2`: over 40.7 µg/mL; for `N#C/C(=C\c1cccc(Oc2ccccc2)c1)C(=O)N1CCOCC1`: 42.5 µg/mL (≈ 127 µM).
For `CC(C)c1ccc(OCC(=O)NC2CCCC2)cc1` the value was 30.2 µg/mL (≈ 116 µM).
The same measure for `COc1cccc(C(=O)NC(C)c2cccc3ccccc23)c1OC` (stereo not drawn): 19 µg/mL (≈ 56.6 µM).
On to `Cc1cccc(NC(=O)Cn2cc(C=O)c3ccccc32)c1`, for which the solubility (kinetic) stood at 0.9 µg/mL (≈ 3.08 µM). This solubility kinetic lies about 21-fold lower than the previous one.
For `Cn1ccnc1C(=O)Cc1ccc([N+](=O)[O-])cc1` the value was 35.2 µg/mL (≈ 144 µM); for `COc1ccccc1NC(=O)c1cc(Cl)nc2ccccc12`, 3.4 µg/mL (≈ 10.9 µM).
The same measure for `C#CCSc1nc2sc3c(c2c(=O)n1C)CCC3`: under 0.3 µg/mL; for `CC1CCCCN1S(=O)(=O)Cc1ccccc1Cl` (stereo not drawn): over 43.2 µg/mL.
In turn, `CCOc1cc(C2C(C#N)=C(N)Oc3cc(N)ccc32)ccc1O` (stereo not drawn) registered a solubility (kinetic) of 33.5 µg/mL (≈ 104 µM).
For `Cc1onc(-c2c(Cl)cccc2Cl)c1C(=O)N=S(C)(=O)c1ccccc1` (stereo not drawn) the value was 1.8 µg/mL (≈ 4.4 µM).
The same measure for `CC1(C(=O)NCCOc2ccccc2Cl)CC1(Cl)Cl` (stereo not drawn): over 48.4 µg/mL; for `Cc1cccc2nc(C(=O)Nc3cccc(C(=O)NC4CC4)c3)cn12`: 5.5 µg/mL (≈ 16.4 µM); for `O=C(/C=C/c1cccnc1)c1ccc(F)c(F)c1`: 27.8 µg/mL (≈ 113 µM).
For `CC(C)(C)c1ccc(NC(=O)CCNC(=O)c2ccco2)cc1` the value was over 47.2 µg/mL.
The compound `CNS(=O)(=O)c1cccc(C(=O)OCC(=O)N2CCCC2)c1` showed a kinetic solubility of 45.2 µg/mL (≈ 138 µM).
For `CC(C(=O)OCC(=O)NC1CCCCC1)N1C(=O)c2ccccc2C1=O` (stereo not drawn) the value was over 53.8 µg/mL; for `CCOP(=O)(OCC)/C(C#N)=C(\O)c1ccc(OC)cc1`, over 46.7 µg/mL; for `Cc1ccnc(SCc2ccc(C(=O)O)cc2)n1`, over 39 µg/mL.
The same measure for `Cc1ccc(CN(C(=O)c2ccco2)C2CCS(=O)(=O)C2)cc1` (stereo not drawn): over 50 µg/mL.
